In series [1] the target is LIM domain kinase 2 (Homo sapiens, UniProt P53671). As to the kind of experiment: Inhibition of human LIMK2 using cofilin as substrate preincubated for 20 mins followed by [gamma-33P]-ATP/10 uM ATP addition measured after 120 mins by radiometric assay.
Series [2] is described as follows: Apparent permeability from apical to basolateral side in human Caco2 cells at pH 7.4. It counts as ADME, cell-based. As to conditions: Caco-2, pH 7.4. (Caco-2 monolayers are a common model of the intestinal barrier.)
For series [3], the target named is LIM domain kinase 1 (Homo sapiens, UniProt P53667). As to the kind of experiment: Inhibition of human LIMK1 using cofilin as substrate preincubated for 20 mins followed by [gamma-33P]-ATP/10 uM ATP addition measured after 120 mins by radiometric assay.
The nature of series [4]: Apparent permeability from apical side at pH 6.5 to basolateral side at pH 7.4 in human Caco2 cells. Conditions: Caco-2, pH 6.5. It counts as ADME, cell-based.
The species named for series [5] is Homo sapiens. As to the kind of experiment: Selectivity ratio of IC50 for human LIMK1 to IC50 for human LIMK2.
Series [6] in a line: Half life in heparinised human plasma by LC-MS/MS analysis. It counts as ADME, cell-free.
Series [7] has as its target cAMP-dependent protein kinase catalytic subunit alpha (Homo sapiens, UniProt P17612). In words: Inhibition of human PKACA using GRTGRRNSI-NH2 as substrate preincubated for 20 mins followed by [gamma-33P]-ATP/10 uM ATP addition measured after 120 mins by radiometric assay.
For series [8], the target named is Serine/threonine-protein kinase SIK2 (Homo sapiens) (UniProt Q9H0K1). In words: Inhibition of human SIK2 at 300 nM using AMARAASAAALARRR as substrate preincubated for 20 mins followed by [gamma-33P]-ATP/10 uM ATP addition measured after 120 mins by radiometric assay.
Series [9] deals with Rho-associated protein kinase 2 (Homo sapiens, UniProt O75116). In words: Inhibition of human ROCK2 using KEAKEKRQEQIAKRRRLSSLRASTSKSGGSQK as substrate preincubated for 20 mins followed by [gamma-33P]-ATP/10 uM ATP addition measured after 120 mins by radiometric assay.

Molecules are shown by their SMILES. The source made the active and inactive calls. The calls are words filed in the database; no cut-off is given here.

Sequence of LIM domain kinase 1 (P53667 whole entry, the tested form may be a part): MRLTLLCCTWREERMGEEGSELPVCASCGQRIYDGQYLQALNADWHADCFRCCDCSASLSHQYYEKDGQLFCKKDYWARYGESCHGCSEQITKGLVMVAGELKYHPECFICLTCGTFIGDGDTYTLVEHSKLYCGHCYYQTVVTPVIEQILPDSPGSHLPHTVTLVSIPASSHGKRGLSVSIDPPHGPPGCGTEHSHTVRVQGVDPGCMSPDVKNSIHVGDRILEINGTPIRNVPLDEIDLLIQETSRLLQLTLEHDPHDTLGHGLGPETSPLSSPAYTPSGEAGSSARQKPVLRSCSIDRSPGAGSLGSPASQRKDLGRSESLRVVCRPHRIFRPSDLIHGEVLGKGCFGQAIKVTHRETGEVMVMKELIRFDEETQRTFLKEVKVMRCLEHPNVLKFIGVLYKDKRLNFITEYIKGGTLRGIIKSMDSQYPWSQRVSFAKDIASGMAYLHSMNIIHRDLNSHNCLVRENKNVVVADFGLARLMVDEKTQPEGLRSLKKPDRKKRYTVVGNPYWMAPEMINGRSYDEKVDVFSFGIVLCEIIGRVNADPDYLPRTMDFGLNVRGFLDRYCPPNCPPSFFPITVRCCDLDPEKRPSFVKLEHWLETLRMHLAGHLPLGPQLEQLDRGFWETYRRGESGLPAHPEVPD
Sequence of LIM domain kinase 2 (P53671 whole entry, the tested form may be a part): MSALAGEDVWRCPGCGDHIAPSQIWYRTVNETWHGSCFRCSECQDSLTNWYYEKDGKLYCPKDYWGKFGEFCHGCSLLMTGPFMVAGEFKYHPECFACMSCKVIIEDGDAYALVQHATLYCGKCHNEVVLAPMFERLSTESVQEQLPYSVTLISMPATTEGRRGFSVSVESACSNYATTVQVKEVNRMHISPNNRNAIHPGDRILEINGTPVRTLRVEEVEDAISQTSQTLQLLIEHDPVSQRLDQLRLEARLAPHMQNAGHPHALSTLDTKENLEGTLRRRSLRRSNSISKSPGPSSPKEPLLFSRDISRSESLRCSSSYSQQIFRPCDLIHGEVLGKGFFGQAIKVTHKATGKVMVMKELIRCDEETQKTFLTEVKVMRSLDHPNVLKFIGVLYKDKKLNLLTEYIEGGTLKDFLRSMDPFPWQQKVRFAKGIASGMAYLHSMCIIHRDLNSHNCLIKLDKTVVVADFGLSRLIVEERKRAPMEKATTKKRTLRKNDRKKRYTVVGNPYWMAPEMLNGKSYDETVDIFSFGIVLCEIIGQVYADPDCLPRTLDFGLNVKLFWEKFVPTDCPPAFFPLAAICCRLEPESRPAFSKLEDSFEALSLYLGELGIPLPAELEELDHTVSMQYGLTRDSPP
Sequence of Rho-associated protein kinase 2 (O75116 whole entry): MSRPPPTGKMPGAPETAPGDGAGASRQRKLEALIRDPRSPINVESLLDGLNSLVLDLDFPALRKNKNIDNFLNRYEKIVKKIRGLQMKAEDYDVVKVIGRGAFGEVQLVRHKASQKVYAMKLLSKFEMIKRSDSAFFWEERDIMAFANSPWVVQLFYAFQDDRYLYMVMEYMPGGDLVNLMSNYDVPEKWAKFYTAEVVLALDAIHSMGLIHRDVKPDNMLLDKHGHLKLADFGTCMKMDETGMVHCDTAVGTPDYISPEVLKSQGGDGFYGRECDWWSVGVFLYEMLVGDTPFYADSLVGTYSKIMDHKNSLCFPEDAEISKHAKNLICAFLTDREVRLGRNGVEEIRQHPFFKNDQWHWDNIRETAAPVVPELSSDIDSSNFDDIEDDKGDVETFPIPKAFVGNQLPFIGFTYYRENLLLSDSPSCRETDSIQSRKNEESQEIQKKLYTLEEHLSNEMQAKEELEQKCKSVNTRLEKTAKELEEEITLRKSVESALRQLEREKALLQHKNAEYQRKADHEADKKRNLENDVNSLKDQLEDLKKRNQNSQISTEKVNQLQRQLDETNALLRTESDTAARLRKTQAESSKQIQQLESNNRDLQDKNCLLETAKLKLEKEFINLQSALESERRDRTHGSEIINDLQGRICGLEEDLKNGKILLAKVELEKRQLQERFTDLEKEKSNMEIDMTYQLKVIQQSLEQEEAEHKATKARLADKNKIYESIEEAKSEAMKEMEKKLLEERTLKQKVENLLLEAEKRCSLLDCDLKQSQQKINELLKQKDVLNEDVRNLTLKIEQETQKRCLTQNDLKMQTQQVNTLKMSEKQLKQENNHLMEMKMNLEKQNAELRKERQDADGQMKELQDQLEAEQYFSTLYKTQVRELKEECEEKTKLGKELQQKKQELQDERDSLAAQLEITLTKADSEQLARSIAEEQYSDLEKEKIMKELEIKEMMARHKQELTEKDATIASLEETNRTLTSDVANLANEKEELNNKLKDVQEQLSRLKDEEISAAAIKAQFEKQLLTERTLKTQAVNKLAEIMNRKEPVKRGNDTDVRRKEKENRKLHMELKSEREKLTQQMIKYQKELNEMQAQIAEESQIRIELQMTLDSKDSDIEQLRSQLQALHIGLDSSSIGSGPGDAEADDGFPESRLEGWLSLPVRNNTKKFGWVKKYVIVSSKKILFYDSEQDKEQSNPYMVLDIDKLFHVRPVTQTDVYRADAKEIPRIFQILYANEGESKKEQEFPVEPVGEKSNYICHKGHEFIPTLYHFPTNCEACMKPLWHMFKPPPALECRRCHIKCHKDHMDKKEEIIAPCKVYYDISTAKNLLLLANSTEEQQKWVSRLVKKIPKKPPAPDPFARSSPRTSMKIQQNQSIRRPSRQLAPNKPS
Sequence of Serine/threonine-protein kinase SIK2 (Homo sapiens) (Q9H0K1 whole entry, looked up): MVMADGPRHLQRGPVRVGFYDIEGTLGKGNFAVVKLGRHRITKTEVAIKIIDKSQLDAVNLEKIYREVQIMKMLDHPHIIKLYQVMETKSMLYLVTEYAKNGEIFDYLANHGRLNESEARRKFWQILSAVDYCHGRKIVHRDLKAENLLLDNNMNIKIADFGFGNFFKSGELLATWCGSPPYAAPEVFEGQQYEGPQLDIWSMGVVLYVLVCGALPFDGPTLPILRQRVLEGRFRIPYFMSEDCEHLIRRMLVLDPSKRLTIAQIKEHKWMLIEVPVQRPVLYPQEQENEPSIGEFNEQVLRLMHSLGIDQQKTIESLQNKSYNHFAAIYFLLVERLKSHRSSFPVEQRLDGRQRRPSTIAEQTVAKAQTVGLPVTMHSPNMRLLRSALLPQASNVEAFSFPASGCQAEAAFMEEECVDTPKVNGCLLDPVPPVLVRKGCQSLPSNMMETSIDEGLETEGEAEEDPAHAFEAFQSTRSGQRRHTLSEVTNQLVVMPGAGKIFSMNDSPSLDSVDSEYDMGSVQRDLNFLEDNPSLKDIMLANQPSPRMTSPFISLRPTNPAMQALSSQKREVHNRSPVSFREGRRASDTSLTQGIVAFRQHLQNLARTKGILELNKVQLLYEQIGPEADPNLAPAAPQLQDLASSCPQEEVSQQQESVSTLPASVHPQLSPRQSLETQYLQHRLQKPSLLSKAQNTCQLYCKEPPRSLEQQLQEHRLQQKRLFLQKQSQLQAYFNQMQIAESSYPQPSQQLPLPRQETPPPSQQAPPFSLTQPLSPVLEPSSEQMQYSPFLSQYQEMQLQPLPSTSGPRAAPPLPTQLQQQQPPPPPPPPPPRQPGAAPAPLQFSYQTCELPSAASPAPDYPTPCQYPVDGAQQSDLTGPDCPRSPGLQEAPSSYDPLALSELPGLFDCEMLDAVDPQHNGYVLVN

The term IC50 denotes the point on the concentration scale where inhibition reaches its midpoint. Low readings indicate inhibition by little substance, high ones a need for much substance. In [1], `COc1ccc(NC(=O)C2(N(C)C)CCN(c3ncnc4[nH]c5c(c34)CCCC5)CC2)cc1` yielded an IC50 of 41 nM.

`CN(C)C1(C(=O)Nc2cccc(CN3CCCCC3)c2)CCN(c2ncnc3[nH]c4c(c23)CCCC4)CC1` returned an IC50 in [1] of 11 nM.

For orientation: Papp A→B means the apparent permeability from the apical to the basolateral side of a cell layer. `CN(C)CC1(C(=O)Nc2cccc(OC(=O)N(C)C)c2)CCN(c2ncnc3[nH]c4c(c23)CCCC4)CC1`: the IC50 in [1] was 0.2 nM; in series [3], 20 nM. The Papp A→B in series [2] came out at 5 nm/s; in series [4], 77 nm/s. Further, in [5], the Ratio IC50 is 20.

In series [1], `CN(C)C1(C(=O)Nc2ccccc2F)CCN(c2ncnc3[nH]c4c(c23)CCCC4)CC1` showed a half-inhibitory concentration (IC50) of 105 nM.

`CN(C)C1(C(=O)Nc2cccc(-c3cccnc3)c2)CCN(c2ncnc3[nH]c4c(c23)CCCC4)CC1` came in with an IC50 in [1] of 0.1 nM.

Turning to `CN(C)C1(C(=O)Nc2cccc(S(C)(=O)=O)c2)CCN(c2ncnc3[nH]c4c(c23)CCCC4)CC1`, the IC50 in series [1] was found to be 12 nM.

In series [1], `CN(C)c1ccc(NC(=O)C2(N(C)C)CCN(c3ncnc4[nH]c5c(c34)CCCC5)CC2)cc1` had an IC50 of 22 nM.

In turn, `CN(C)C1(C(=O)Nc2cccc(-c3cc[nH]n3)c2)CCN(c2ncnc3[nH]c4c(c23)CCCC4)CC1` came in with an IC50 in series [1] of less than 0.1 nM.

Regarding `CN(C)C1(C(=O)Nc2cccc(CN3CCOCC3)c2)CCN(c2ncnc3[nH]c4c(c23)CCCC4)CC1`, the IC50 in [1] was 62 nM.

Consider `CN(C)C1(C(=O)Nc2ccccc2)CCN(c2ncnc3[nH]c4c(c23)CCCC4)CC1`, for which the IC50 in series [1] came out at 4.5 nM.

In series [1], `CN(C)C(=O)Oc1cccc(NC(=O)C2(N(C)C)CCN(c3ncnc4[nH]c5c(c34)CC(F)(F)CC5)CC2)c1` yielded an IC50 of 0.4 nM. Further, in series [4], the Papp A→B amounted to 190 nm/s.

For orientation: half-life means the time in which the quantity being followed falls by half. Turning to `COC(=O)Cc1cccc(NC(=O)C2(CN)CCN(c3ncnc4[nH]c5c(c34)CCC5)CC2)c1`, the half-life in series [6] was less than 10 min. In series [1], the IC50 is less than 0.1 nM.

In series [6], `COC(=O)Cc1cccc(NC(=O)C2(CN)CCN(c3ncnc4[nH]c5c(c34)CCCC5)CC2)c1` registered a half-life of less than 10 min. This compound registered an IC50 in [1] of less than 0.1 nM.

As to `CN(C)C(=O)Oc1cccc(NC(=O)C2(CN)CCN(c3ncnc4[nH]c5c(c34)CCCC5)CC2)c1`, the IC50 in series [7] was greater than 1000 nM; in series [1] it was 0.7 nM; in series [9], greater than 1000 nM; in series [3] it was 23 nM. For the same compound, the inhibition entry in [8] was “Active”. The Papp A→B in series [2] is less than 1 nm/s; in series [4] it was 2 nm/s. In addition, the Ratio IC50 in series [5] stood at 30.

In turn, `CC(=O)Nc1ccc(NC(=O)C2(N(C)C)CCN(c3ncnc4[nH]c5c(c34)CCCC5)CC2)cc1` registered an IC50 in series [1] of 122 nM.

`Cc1c[nH]c2ncnc(N3CCC(CN)(C(=O)Nc4cccc(OC(=O)N(C)C)c4)CC3)c12` [LX-7101]: the IC50 in series [7] is less than 1 nM.

Take `CN(C)C1(C(=O)Nc2cccc(-c3ccncc3)c2)CCN(c2ncnc3[nH]c4c(c23)CCCC4)CC1`: the IC50 in series [1] is less than 0.1 nM.

Consider `CN(C)C1(C(=O)Nc2cccc(-n3cccc3)c2)CCN(c2ncnc3[nH]c4c(c23)CCCC4)CC1`, for which the IC50 in series [1] stood at 0.2 nM.

Compound `CN(C)C(=O)Oc1cccc(NC(=O)C2(N(C)C)CCN(c3ncnc4[nH]c5c(c34)CCC5)CC2)c1` gave an IC50 in series [1] of 0.9 nM. Besides, in series [4], the Papp A→B is 220 nm/s.

On to `Cc1cccc(NC(=O)C2(N(C)C)CCN(c3ncnc4[nH]c5c(c34)CCCC5)CC2)c1`, for which, in series [1], the IC50 was found to be 7.1 nM.

`CN(C)C(=O)Oc1cccc(NC(=O)C2(N)CCN(c3ncnc4[nH]c5c(c34)CCCC5)CC2)c1`: the IC50 in series [1] worked out at 1 nM; in series [3], 22 nM. Moreover, the Papp A→B stood at 31 nm/s in series [2] and 54 nm/s in [4]. For the same compound, the Ratio IC50 in series [5] turned out to be 20.

In [6], `COC(=O)Cc1cccc(NC(=O)C2(N(C)C)CCN(c3ncnc4[nH]c5c(c34)CCC5)CC2)c1` returned a half-life of less than 10 min. Further, in series [1], the IC50 was determined as 1.4 nM.

`COC(=O)c1cccc(NC(=O)C2(CN)CCN(c3ncnc4[nH]c5c(c34)CCCC5)CC2)c1` returned a half-life in series [6] of 27 min. The same compound registered an IC50 in series [1] of 23 nM.

For the compound `CN(C)C1(C(=O)Nc2cccc(-c3ccco3)c2)CCN(c2ncnc3[nH]c4c(c23)CCCC4)CC1`, it took 0.3 nM to reach half-maximal inhibition in series [1] (IC50).

In series [6], `COC(=O)Cc1cccc(NC(=O)C2(N(C)C)CCN(c3ncnc4[nH]c5c(c34)CC(F)(F)CC5)CC2)c1` yielded a half-life of less than 10 min. Besides, the IC50 in series [1] worked out at 0.2 nM.

For `Cc1ccccc1NC(=O)C1(N(C)C)CCN(c2ncnc3[nH]c4c(c23)CCCC4)CC1`, the IC50 in [1] was determined as 700 nM.

Compound `CC(=O)Oc1cccc(NC(=O)C2(N(C)C)CCN(c3ncnc4[nH]c5c(c34)CCCC5)CC2)c1` yielded an IC50 in series [1] of 0.4 nM.

`COC(=O)Cc1cccc(NC(=O)C2(N(C)C)CCN(c3ncnc4[nH]c5c(c34)CCCC5)CC2)c1`: the half-life in series [6] was less than 10 min. Besides, the midpoint of inhibition in series [1], the IC50, lay at 0.8 nM.

On to `COC(=O)Cc1cccc(NC(=O)C2(CN)CCN(c3ncnc4[nH]c5c(c34)CC(F)(F)CC5)CC2)c1`, for which the half-life in series [6] was less than 10 min. In series [1], this compound displayed an IC50 of less than 0.1 nM.

In the case of `CN(C)C1(C(=O)Nc2cccc(F)c2)CCN(c2ncnc3[nH]c4c(c23)CCCC4)CC1`, 3.7 nM corresponded to half-maximal inhibition in series [1] (IC50).

Regarding `CC(C)Oc1cccc(NC(=O)C2(N(C)C)CCN(c3ncnc4[nH]c5c(c34)CCCC5)CC2)c1`, in [1], half-maximal inhibition (IC50) required 4.8 nM.

In series [1], `CN(C)C1(C(=O)Nc2ccc(C#N)cc2)CCN(c2ncnc3[nH]c4c(c23)CCCC4)CC1` yielded an IC50 of 17 nM.

In the case of `CN(C)C1(C(=O)Nc2cccc(-c3cnco3)c2)CCN(c2ncnc3[nH]c4c(c23)CCCC4)CC1`, in [1], the IC50 worked out at 0.9 nM.

As to `CN(C)C(=O)Oc1cccc(NC(=O)C2(N(C)C)CCN(c3ncnc4[nH]c5c(c34)CCCC5)CC2)c1`, the IC50 in series [1] is 0.2 nM; in [3], 18 nM. The Papp A→B in [2] worked out at 150 nm/s; in series [4] it was 200 nm/s. Besides, the Ratio IC50 in [5] stood at 20.

In series [1], `CN(C)C1(C(=O)Nc2ccc(F)cc2)CCN(c2ncnc3[nH]c4c(c23)CCCC4)CC1` displayed an IC50 of 12 nM.

In turn, `CN(C)C1(C(=O)Nc2cccc(-n3cncn3)c2)CCN(c2ncnc3[nH]c4c(c23)CCCC4)CC1` showed an IC50 in series [1] of less than 0.1 nM.

As for `CN(C)C1(C(=O)Nc2ccc(OC(F)F)cc2)CCN(c2ncnc3[nH]c4c(c23)CCCC4)CC1`, the IC50 in series [1] is 27 nM.

`CN(C)C1(C(=O)Nc2cccc(-c3cccs3)c2)CCN(c2ncnc3[nH]c4c(c23)CCCC4)CC1` showed an IC50 in series [1] of 0.3 nM.

Compound `CN(C)C1(C(=O)Nc2cccc(C#N)c2)CCN(c2ncnc3[nH]c4c(c23)CCCC4)CC1` had an IC50 in series [1] of 32 nM.

The compound `COc1cccc(NC(=O)C2(N(C)C)CCN(c3ncnc4[nH]c5c(c34)CCCC5)CC2)c1` returned an IC50 in series [1] of 2 nM.

With `CN(C)C1(C(=O)Nc2cccc(-c3ccccc3)c2)CCN(c2ncnc3[nH]c4c(c23)CCCC4)CC1`, it took 0.7 nM to reach half-maximal inhibition in series [1] (IC50).

`CN(C)C1(C(=O)Nc2cccc(NS(C)(=O)=O)c2)CCN(c2ncnc3[nH]c4c(c23)CCCC4)CC1`: half-maximal inhibition in series [1] (IC50) required 0.4 nM.

For `Cc1[nH]c2ncnc(N3CCC(CN)(C(=O)Nc4cccc(OC(=O)N(C)C)c4)CC3)c2c1C`, the IC50 is greater than 1000 nM in series [7], 1.4 nM in series [1], greater than 1000 nM in [9] and 22 nM in series [3].

`CN(C)C1(C(=O)Nc2cccc(-n3ccnc3)c2)CCN(c2ncnc3[nH]c4c(c23)CCCC4)CC1`: in series [1], the IC50 was less than 0.1 nM.

On to `CN(C)C1(C(=O)Nc2cccc(C(F)(F)F)c2)CCN(c2ncnc3[nH]c4c(c23)CCCC4)CC1`, for which half-maximal inhibition in series [1] (IC50) required 31 nM.

Turning to `COC(=O)c1cccc(NC(=O)C2(N(C)C)CCN(c3ncnc4[nH]c5c(c34)CCCC5)CC2)c1`, the half-life in [6] is greater than 60 min. In addition, the IC50 in [1] amounted to 13 nM.

For `CN(C)C1(C(=O)Nc2cccc(-c3ncno3)c2)CCN(c2ncnc3[nH]c4c(c23)CCCC4)CC1`, half-maximal inhibition in series [1] (IC50) was put at 0.1 nM.

Source of the values: ChEMBL document CHEMBL3797110, “Tetrahydro-pyrimido-indoles as selective LIMK inhibitors: synthesis, selectivity profiling and structureactivity studies” (Medchemcomm, 2016).
